US20210338576A1, “CANCER TREATMENT” (NOXOPHARM LIMITED, priority 2016, published 2021)

Columns and labels:
[1] = tested on: primary prostate cancer; assay: Cytotoxic monotherapy with idronoxil suppository in theobroma oil base in prostate cancer patients, PSA follow-up; assay type: in vivo, human
Procedure: Patient receiving chemical castration therapy presenting with undetectable testosterone and receiving Zolodex for primary prostate cancer has a PSA doubling time of 6 weeks (PSA=9.6). Patient received suppository comprising 400 mg idronoxil in theobroma oil suppository base daily for 4 weeks. […] Suppository treatment was stopped for a period of 2 weeks and then continued for 2 weeks.
Patient receiving chemical castration therapy having urinary obstruction and pelvic discomfort receiving 400 mg idronoxil suppository formulation for primary prostate cancer (PSA=19). Patient received suppository comprising 800 mg idronoxil in theobroma oil suppository based daily in 2 week courses for 15 months. The suppository formulation slowed tumour growth to a doubling time of 6 months (PSA=67 at completion of 15 month therapy).

[2] = tested on: wide range of cancer cell types; details: fold more potent than genistein; cited from earlier work
[3] = tested on: primary prostate cancer; assay: Rectal idronoxil in olive oil (high oleic acid) base in a prostate cancer patient, PSA follow-up; assay type: in vivo, human
Procedure: Patient receiving chemical castration therapy presenting with undetectable testosterone and receiving Zolodex for primary prostate cancer (PSA=6.0). Patient received 400 mg idronoxil daily in olive oil base rectally for 3 weeks.

[4] = tested on: colo-rectal cancer cell lines (eg. HT-29, CaCo-2); details: HT-29, CaCo-2 (Alvero et al, 2008); cited from earlier work
[5] = intravenously administered, cyclodextrin carrier (Howes et al, 2011); cited from earlier work
[6] = tested on: late-stage ovarian cancer; details: Phase 3, late-stage ovarian cancer, 142 women recruited (Fotopoulou et al. 2014); cited from earlier work
[7] = Brown et al, 2008; cited from earlier work
[8] = tested on: primary prostate cancer; assay: Oral administration of idronoxil to a prostate cancer patient, PSA follow-up; assay type: in vivo, human; parameters: PSA at completion of 2 week period: unit not given here
Procedure: Patient receiving chemical castration therapy presenting with undetectable testosterone and receiving Zolodex for primary prostate cancer (PSA=3.4). Patient received 400 mg idronoxil daily by oral administration, increasing to 800 mg daily for 2 weeks. PSA at completion of 2 week period=6.7 indicating doubling time of 1 month.

[9] = tested on: late-stage cancers; details: patients with late-stage cancers (Pant et al, 2014); cited from earlier work
[10] = 400 mg theobroma oil suppository, after stop for 2 weeks, then continued for 2 weeks
[11] = suppository 800 mg in theobroma oil base daily in 2 week courses for 15 months, PSA at start 19

Structure (SMILES)	PSA score [1, 10]	effect on tumour growth [1, 10]	effect on tumour growth ([1]; suppository 400 mg in theobroma oil base daily for 4 weeks)	PSA score ([1]; suppository 400 mg in theobroma oil base daily for 4 weeks, PSA at start 9.6, doubling time 6 weeks)	PSA at completion of 15 month therapy [1, 11]	tumour doubling time [1, 11] [months]	potency as an anti-cancer agent compared to genistein [2]	tumour growth during treatment ([3]; 400 mg daily in olive oil base rectally)	PSA at completion of 2 week period ([3]; 400 mg daily in olive oil base rectally for 3 weeks, PSA at start 6.0)	sensitivity of colo-rectal cancer cell lines [4]	conjugation [5]	clinical benefit [6]	susceptibility to Phase 1 metabolic processes [7]	effect on tumour doubling time ([8]; oral administration)	PSA doubling time ([8]; oral, 400 mg daily increasing to 800 mg daily for 2 weeks) [month]	PSA at completion of 2 week period ([8]; oral, 400 mg daily increasing to 800 mg daily for 2 weeks, chemical castration therapy, PSA at start 3.4)	clinical benefit [9]
Oc1ccc(C2=Cc3ccc(O)cc3OC2)cc1 [idronoxil, 2H-1-Benzopyran-7-0,1,3-(4-hydroxyphenyl)]	10	inhibitory effect on tumour growth	effectively stopped tumour growth	10	67	6	about 10 ×	continual growth of tumour during the treatment period	9.6	insensitivity	completely conjugated	lack of any clinical benefit	not being particularly susceptible to Phase 1 metabolic processes	failed to reduce tumour doubling time	1	6.7	–
Oc1ccc(C2COc3cc(O)ccc3C2c2ccc(O)cc2)cc1 (centres unmarked) [ME-143, 4,4′-(7-hydroxychroman-3,4-diyl)diphenol]	–	–	–	–	–	–	–	–	–	–	–	–	–	–	–	–	failed to show any clinical benefit
